Test results: publication PMC6882823, “Partitioning of amino acids and proteins into decanol using phase transfer agents towards understanding life in non-polar liquids” (Scientific Reports, 2019)

How the values were obtained:
[1] = parameters: method as in PMID 7108955; conditions: amino acid residue; positive scores = higher hydrophobicity; cited from earlier work
[2] = Water/decanol phase partitioning with or without phase transfer agents; format: physicochemical
Protocol: Biomolecules were dissolved in ultrapure water (Millipore EMD, USA), containing decylsulfate and/or DDAB when noted. […] Final concentrations of phase transfer agents (PTAs) and amino acids were generally 10 mM unless noted otherwise for specific experiments. Proteins were generally diluted until their 280 nm absorbance was less than or equal to 1 AU.
(§1) Equal volumes of water phase (containing the biomolecule and PTA, if added) and decanol were mixed, vortexed for 30 s, then centrifuged for 3 minutes with a mini centrifuge. These samples were prepared in triplicate. Both decanol and aqueous phase were analyzed for biomolecules. Phenylalanine and proteins were analyzed using UV-vis (Hewlett-Packard 8453).
(§2) HPLC was performed with Cosmosil HILiC column (2.5 µm particle size, 3 × 100 mm; Nacalai USA) at 30 °C with a 1.0 mL/min flow rate, and isocratic elution of 25% 20 mM ammonium acetate, pH 7.5 and 75% acetonitrile (Optima, LC-MS purity, Fisher Scientific). Injection volume was 10 µL. For mass spectra collection, HESI heater temp was 50 °C, with a 4.5 kV spray, and 250 °C capillary temperature in positive ion mode.

[3] = Potassium ion binding of valinomycin in the decanol phase; conditions: decanol phase after partitioning against 100 mM KCl
Protocol: Ultra-pure Millipore grade (18.2 MΩ) water, 100 mM KCl or 100 mM AuCl were tested as aqueous phases. In all samples all of the valinomycin was found in the decanol phase (see SI for additional details).
as §1, §2

**Q.** With `N[C@@H](CCC(=O)O)C(=O)O` [glutamic acid] as the molecule, how does the “Hydrophathy (hydropathy score of residue type)” value [1] read?
**A.** −3.5

**Q.** With `NCC(=O)O` [glycine, Glycine] as the molecule, how does the “Hydrophathy (hydropathy score of residue type)” value [1] read?
**A.** −0.4

**Q.** What does the source list for `N[C@@H](Cc1ccccc1)C(=O)O` [phenylalanine, Phenylalanine]?
**A.** phenylalanine partitioning into decanol, 1:1 PTA to phenylalanine, pH 7 ([2]; water/decanol, 10 mM phenylalanine, 1:1 ratio of PTA (DS and DDAB 1:1), pH 7 zwitterionic, UV-vis, n = 3): 15%; phenylalanine entering the decanol phase, 1:10 PTA to phenylalanine ([2]; water/decanol, 10 mM phenylalanine, 1:10 ratio of PTA, all pHs (1.5 DS; 7.0 DS and DDAB; 10.0 DDAB), UV-vis, n = 3): about 10%; Hydrophathy (hydropathy score of residue type) [1]: 2.8

**Q.** For “Tpol: Taq DNA polymerase, UniProt P19821”, which “Tpol entering the decanol phase” value ([2]; water/decanol, no PTA or 5 mM of both DDAB and DS, UV-vis) is on record?
**A.** About 10%

**Q.** Which “valinomycin found in the decanol phase” value ([2]; water/decanol, without PTAs, aqueous phase ultra-pure water, 100 mM KCl or 100 mM AuCl, LC-MS and UV 210 nm, three independent partitionings) does the source give for valinomycin [reference compound] here?
**A.** all

**Q.** What about the “ability to bind potassium ions” value [3] of the same molecule?
**A.** appeared to retain its biological ability to bind to potassium ions

B1: Bacteriorhodopsin: a membrane protein, soluble only in amphiphilic systems (protein, UniProt P02945 14-262, looked up)
Bacteriorhodopsin: QAQITGRPEWIWLALGTALMGLGTLYFLVKGMGVSDPDAKKFYAITTLVPAIAFTMYLSMLLGYGLTMVPFGGEQNPIYWARYADWLFTTPLLLLDLALLVDADQGTILALVGADGIMIGTGLVGALTKVYSYRFVWWAISTAAMLYILYVLFFGFTSKAESMRPEVASTFKVLRNVTVVLWSAYPVVWLIGSEGAGIVPLNIETLLFMVLDVSAKVGFGLILLRSRAIFGEAEAPEPSAGDGAAATSD
**Q.** For B1, which “behaviour of bacteriorhodopsin in partitioning experiments” value ([2]; water/decanol with DS and DDAB added, visual) is on record?
**A.** aggregated at the interface between the water and oil phase

**Q.** What about the “solubility in water and decanol phases” value ([2]; without PTAs, appearing as crystals) of the same molecule?
**A.** insoluble in both the water and decanol phases
